We go through one molecule from patent US20230310348A1, “USE OF ALVERINE OR ITS DERIVATIVES FOR THE TREATMENT OF MITOCHONDRIAL DISEASES OR DYSFUNCTION ASSOCIATED WITH MITOCHONDRIAL COMPLEX I DEFICIENCIES” (ASSOCIATION FRANCAISE CONTRE LES MYOPATHIES, priority 2020, published 2023).

Data set [1] deals with complex I of nuo-51^A357V (NDUFV1). The data set can be described thus: complex I activity (rotenone sensitive NADH dehydrogenase, CI/CS) on crude mitochondrial extracts. Conditions: 1 µM ALV, 31.5° C., vs vehicle. In kind it is cell-based, Podospora anserina. Here is the method:
Complex I activity (CI) was performed on crude mitochondria obtained after mixing the mycelium with glass beads in 0.4 M sucrose buffer and differential centrifugations. The rates of NADH consumption in presence and absence of rotenone was registered by spectrophotometry (340-380 nm) with 25 µg of mitochondria starting with NADH and quinone addition. Citrate synthase activity (CS) was determined on equivalent samples of mitochondria to express the complex I activity as the NADH dehydrogenase – rotenone sensitive activity relative to citrate synthase activity (CI/CS).
Experiments were performed at least five times and error bars represent the standard deviation. Differences between treated vs untreated cultures (VEH) were evaluated using the Pearson’s chi-square test, with significant p values < 0.05.

Data set [2] relates to C. elegans nuo-1^A352V (NDUFV1) mutant. The data set can be described thus: adult progeny count of mutant worms. In kind it is in vivo, Caenorhabditis elegans. To be noted: 1 µM ALV in the medium, p=0.02. Here is the method: (§1) The C. elegans nematodes used in Examples 6 to 7 are the wild type BRISTOL N2 line from the Caenorhabditis Genetics Center (CGC) consortium. The mutant line LB25, carrying the nuo-1^A352V mutation (Δnuo-1, ex:nuo-1 (A352V)), mimicking the pathogenic mutation NDUFV1^A341V in human, was constructed by B. Lemire (Canada; Grad and Lemire, 2004).
2-3 days after hatching, adults from the progeny (F1-adults) were counted.
The progeny of more than 30 FO-adults was recorded by experiment in three independent experiments and error bars represent the standard deviation. Differences between treated cells vs untreated cells were evaluated using the Student’s t-test with significant p values <0.05.

Data set [3] relates to wild-type worms (N2) subjected to NDUFS8 RNAi. The data set can be described thus: progeny of wild-type worms under RNAi. It counts as in vivo, Caenorhabditis elegans. To be noted: ALV 1 µM.
Text: as §1
(§2) Decreased expression of NDUFV1 or NDUFS8 in wild-type worms (N2) was achieved by RNAi with the feeding method (Kamath RS and Ahringer J., 2003). […] Individual L4 animals were then transferred to separate wells (same medium and RNAi conditions) in microplates and monitored within the 3 to 7 next days.
(§3) RNAi of NDUFV1 (CO9H10.3) and RNAi of NDUFS8 (T20H4.5) lead to few FO-adults able to give a larval progeny. The number of FO-adults able to give a larval progeny was thus monitored. The progeny of more than 30 FO-adults was recorded in three independent experiments (t-test, p=0.02). The efficiency of RNAi was determined by real-time qRT-PCR (20% remaining mRNA of NDUFV1 or NDUFS8 in the FO-adults under the RNAi conditions).

For data set [4], the system named is wild-type worms (N2) subjected to NDUFV1 RNAi. The experiment in a line: progeny of wild-type worms under RNAi. Conditions: ALV 1 µM. In kind it is in vivo, Caenorhabditis elegans.
Text: as §1, §2, §3

In data set [5] the test system is complex I of NDUFV1 mutant cells. The experiment in a line: complex I enzyme activity of treated cells. It counts as cell-based, human. Conditions: 48 hours, low glucose medium.
Experimental: The complex I mutant cells, carrying the NDUFV1 compound heterozygous mutations responsible for complex I deficiency, were cultured in standard DMEM high glucose media (4.5 g/L) or in low glucose (0.5 g/L), supplemented with 10% fetal bovine serum, 1% glutamine and 50 µg/ml uridine at 37° C. in presence of 5% CO2 as described elsewhere (Leman et al., 2015). To optimize the effect of drug concentrations, cells were shifted to low glucose-medium 0.5 g/l (to force the cells to rely on OXPHOS rather than glycolysis) supplemented with various concentrations of 10 nM to 10 µM of Alverine or of the vehicle (DMSO) during 48 hours.
Complex I enzyme activity was measured at 37° C. on an UVmc2 spectrophotometer (SAFAS) as described (Leman et al., 2015; Desquiret-Dumas et al., 2012). […] The reaction was started by adding 0.15 mM NADH and the disappearing rate of DCPIP was measured at 600 nm for 2 minutes. The unspecific activity was determined in the presence of rotenone (5 µM). […]
Experiments were done at least in triplicates and error bars represent the standard deviation. Differences between treated cells vs untreated cells (DMSO) were evaluated using the Student’s t-test with significant p values <0.05.
Data set [6] concerns ND6 cell line. The data set can be described thus: lactate production. In kind it is cell-based, human. To be noted: 48 h exposure, concentrations above 1 µM and 3 µM. The method, then:
(§4) The mutant cell lines have a preferential anaerobic glycolytic metabolism compared to control cells.
(§5) A total of 15,000 cells/well were plated in 96-well plates and grown at 37° C. in the presence of 5% CO2. […] After 48 h, supernatants were harvested and lactates were assayed using a lactate determination kit according to the manufacturer (Abcam kit ab65330). Lactate concentration was measured with a microplate spectrophotometer (CLARIOstar apparatus, BMG Labtech).

The test system of data set [7] is NDUFV1 cell line. The data set can be described thus: lactate production. In kind it is cell-based, human. Conditions: 48 h exposure, Alv 30 nM to 10 µM. The method, then:
as §4, §5

The test system of data set [8] is control fibroblast cell line. The data set can be described thus: lactate production. It counts as cell-based, human. Conditions: 48 h exposure, Alv 30 nM to 10 µM. The method, then:
as §4, §5

The test system of data set [9] is taz1Δ yeast strain. The experiment in a line: halo test on solid respiratory medium. Conditions: 100 nmoles ALV on filter, YPE, 36° C., 4-5 days. It counts as cell-based. The method, then: taz1Δ yeast strain was constructed by replacing the open reading frame of TAZ1 by that of TRP1 in the W303-1A strain (MATa ade2-1 ura3-1 his311, 15 trp1-1 leu2-3,112 can1-100) (de Taffin de Tilques, M. et al., 2018).
(§6) 200 µL of the various yeast mutant strain grown in liquid YPD rich fermentable medium (1% Yeast extract, 0.5% Bacto Peptone, 2% Glucose) at 0.5 OD600 were spread on agar-based solid respiratory medium: either YPG (1% Yeast Extract, 0.5% Bacto Peptone, 2% glycerol) for fmc1, shy1 and NARP mutants or YPE (1% Yeast extract, 0.5% Bacto Peptone, 2% ethanol) for taz1 and sym1 mutants. […] The plates were then incubated at 28° C. for shy1 mutant or 36° C. for fmc1, tazl, sym1 and NARP mutants for 4-5 days and then scanned. DMSO, the compound vehicle is used as a negative control.

Data set [10] deals with fmc1 yeast mutant. The experiment in a line: halo test on solid respiratory medium. It counts as cell-based. Conditions: 100 nmoles ALV on filter, YPG, 36° C., 4-5 days. The method, then: (§7) sym1Δ yeast strain was constructed by replacing the open reading frame of SYM1 by that of kanMX6 in the W303-1A strain (MATa ade2-1 ura3-1 his311, 15 trpl-1 leu2-3,112 can1-100). fmc1 MC6 MATa ade2-1 his3-11,15 trp1-1 leu2-3,112 ura3-1 fmcl::HIS3 [Δi ER OR] (Schwimmer, C. et al., 2005).
as §6

In data set [11] the test system is sym1Δ yeast strain. The experiment in a line: halo test on solid respiratory medium. Conditions: 100 nmoles ALV on filter, YPE, 36° C., 4-5 days. It counts as cell-based. The method, then:
as §7, §6

Data set [12] has as its system NARP MR14 (atp6-L183R) yeast mutant. The data set can be described thus: halo test on solid respiratory medium. In kind it is cell-based. To be noted: 100 nmoles ALV on filter, YPG, 36° C., 4-5 days. Here is the method:
as §6

Data set [13] relates to shy1Δ yeast strain. The data set can be described thus: halo test on solid respiratory medium. To be noted: 100 nmoles ALV on filter, YPG, 28° C., 4-5 days. It counts as cell-based. Here is the method:
shy1Δ yeast strain was constructed by replacing the open reading frame of SHY1 by that of HIS in the W303-1A strain (MATa ade2-1 ura3-1 his311, 15 trp1-1 leu2-3,112 can1-100) (Barrientos, A. et al., 2002).
as §6

The subject of data set [14] is taz1 mutant yeast strain. The experiment in a line: respiratory growth in liquid medium (Bioscreen). It counts as cell-based. Conditions: 70 h, liquid medium with 2% glycerol. Here is the method: These assays were performed in 96-well plates in the Bioscreen device.

`CCN(CCCc1ccccc1)CCCc1ccccc1.O=C(O)CC(O)(CC(=O)O)C(=O)O` [ALV, Alverine citrate]: the “complex I activity (CI/CS)” value in data set [1] is given as “significantly increased”. Moreover, the “adult progeny (number of F1-adults obtained by F0-adult)” value in [2] is listed as “significantly increased”. Further, the “progeny (F0-adults able to give a larval progeny)” value in data set [3] and in data set [4] was “increase their progeny” each time. In addition, the “complex I enzyme activity” value in data set [5] (100 nM ALV) and in [5] (300 nM ALV) was “beneficial effect” each time. For the same molecule, the “lactate production compared to vehicle” value in data set [6] is “significantly increased”. Also, the lactate production entry in data set [7] and in [8] was “did not alter lactate production” in each case. Also, the “growth around filter (halo test)” value in data set [9], in [10], in data set [11], in data set [12] and in data set [13] was “halo of enhanced growth” in each case. The “concentration from which toxicity has been found” value in [14] is at least 100 µM. The “respiratory growth (cell density)” value in data set [14] (ALV from 100 pM to 10 µM) is given as “increased respiratory growth”.
